Test results reported in ChEMBL document CHEMBL3877269, “Structure-activity relationships and optimization of acyclic acylphloroglucinol analogues as novel antimicrobial agents” (Eur J Med Chem, 2017).
In brackets after ≈: the same amount, converted by molar mass. Activity calls are given as the source filed them. The calls are words filed in the database; no cut-off is given here.

Experiments:
Staphylococcus aureus [1] = experiment: Antibacterial activity against methicillin-resistant Staphylococcus aureus JCSC 2172 after 8 to 12 hrs by resazurin dye based microdilution method; assay type: functional
Staphylococcus aureus [2] = experiment: Antibacterial activity against drug-susceptible Staphylococcus aureus ATCC 6538 after 8 to 12 hrs by resazurin dye based microdilution method; assay type: functional
Staphylococcus aureus [3] = experiment: Potency index, ratio of vancomycin MIC to compound MIC for methicillin-resistant Staphylococcus aureus JCSC 2172; assay type: functional
Bacillus thuringiensis = experiment: Antibacterial activity against Bacillus thuringiensis ATCC 10792 after 8 to 12 hrs by resazurin dye based microdilution method; assay type: functional
Bacillus cereus = experiment: Antibacterial activity against Bacillus cereus ATCC 10876 after 8 to 12 hrs by resazurin dye based microdilution method; assay type: functional
Bacillus subtilis = experiment: Antibacterial activity against Bacillus subtilis ATCC 11774 after 8 to 12 hrs by resazurin dye based microdilution method; assay type: functional
Escherichia coli = experiment: Antibacterial activity against Escherichia coli ATCC 8739 after 8 to 12 hrs by resazurin dye based microdilution method; assay type: functional
[4] = Cytotoxicity against mouse RAW264.7 cells assessed as reduction in cell viability after 24 hrs by MTT assay; assay type: toxicity
[5] = Selectivity ratio of IC50 for mouse RAW264.7 cells to MIC for methicillin-resistant Staphylococcus aureus JCSC 2172; assay type: ADME
Staphylococcus aureus [6] = experiment: Bacteriostatic activity against methicillin-resistant Staphylococcus aureus JCSC 2172 at 0.5 to 2 times MIC up to 10 hrs by time-kill assay; assay type: functional
Staphylococcus aureus [7] = experiment: Bactericidal activity against methicillin-resistant Staphylococcus aureus JCSC 2172 assessed as reduction in CFU count at 4 times MIC after 24 hrs by time-kill assay; assay type: functional; set-up: scale not given: the % may be the effect or the level left
Staphylococcus aureus [8] = experiment: Bactericidal activity against methicillin-resistant Staphylococcus aureus JCSC 2172 assessed as 3-log reduction in bacterial colony at 4 times MIC up to 4 hrs by time-kill assay; assay type: functional
Staphylococcus aureus [9] = experiment: Bactericidal activity against methicillin-resistant Staphylococcus aureus JCSC 2172 assessed induction of membrane potential dissipation at 0.5 to 8 times MIC by DiSC3-5 probe based fluorescence assay; assay type: functional
Staphylococcus aureus [10] = experiment: Disruption of cytoplasmic membrane potential in methicillin-resistant Staphylococcus aureus JCSC 2172 at 8 times MIC after 4 hrs by SYTOX green dye based fluorescence assay; assay type: functional
Staphylococcus aureus [11] = experiment: Induction of cell lysis in methicillin-resistant Staphylococcus aureus JCSC 2172 at 8 times MIC after 4 hrs by osmium tetroxide staining based scanning electron microscopic method; assay type: functional
Staphylococcus aureus [12] = experiment: Disruption of cytoplasmic membrane potential in methicillin-resistant Staphylococcus aureus JCSC 2172 at 10 ug/ml after 4 hrs by SYTOX green dye based fluorescence assay; assay type: functional
[13] = Solubility of the compound in DMSO; assay type: physicochemical
Staphylococcus aureus [14] = experiment: Bactericidal activity against methicillin-resistant Staphylococcus aureus JCSC 2172 assessed as 3-log reduction in bacterial colony at 4 times MIC after 10 hrs by time-kill assay; assay type: functional

| Structure (SMILES) | MIC (Staphylococcus aureus [1]) [µg/mL] | MIC (Staphylococcus aureus [2]) [µg/mL] | MIC (Bacillus thuringiensis) [µg/mL] | MIC (Bacillus cereus) [µg/mL] | MIC (Bacillus subtilis) [µg/mL] | MIC (Escherichia coli) [µg/mL] | IC50 at 24 h [4] [µg/mL] | selectivity ratio [5] | further results |
| --- | --- | --- | --- | --- | --- | --- | --- | --- | --- |
| CCC(=O)c1c(O)cc(O)c([C@@H](CC(C)C)C2=C(O)C(C)(C)C(=O)C(C)(C)C2=O)c1O | 8 (≈ 18.5 µM) | 8 (≈ 18.5 µM) |  |  |  |  |  |  |  |
| CCCCCCCC(=O)c1c(O)cc(O)c([C@@H](CC(C)C)C2=C(O)C(C)(C)C(=O)C(C)(C)C2=O)c1O | 0.25 (≈ 0.497 µM) | 0.25 (≈ 0.497 µM) | 0.25 (≈ 0.497 µM) | 0.25 (≈ 0.497 µM) | 0.13 (≈ 0.259 µM) | > 32 | 5.1 (≈ 10.1 µM) | 20.4 | Ratio (Staphylococcus aureus [3]): 4; Activity (Staphylococcus aureus [6]): >90%; Activity (Staphylococcus aureus [7]): 99.99%; Activity (Staphylococcus aureus [8]): Active; Activity (Staphylococcus aureus [9]): Active; Activity (Staphylococcus aureus [10]): Active; Activity (Staphylococcus aureus [11]): Active |
| CC(C)C[C@@H](C1=C(O)C(C)(C)C(=O)C(C)(C)C1=O)c1c(O)cc(O)c(C(=O)CCc2ccccc2)c1O | 8 (≈ 15.7 µM) | 4 (≈ 7.86 µM) |  |  |  |  |  |  |  |
| CC(C)C[C@@H](C1=C(O)C(C)(C)C(=O)C(C)(C)C1=O)c1c(O)cc(O)c(C(=O)C2CCCC2)c1O | > 32 | 32 (≈ 67.7 µM) |  |  |  |  |  |  |  |
| CC(C)C[C@@H](C1=C(O)C(C)(C)C(=O)C(C)(C)C1=O)c1c(O)cc(O)c(C(=O)C2CCC2)c1O | 16 (≈ 34.9 µM) | 16 (≈ 34.9 µM) |  |  |  |  |  |  |  |
| CCCCCCCCC(=O)c1c(O)cc(O)c([C@@H](CC(C)C)C2=C(O)C(C)(C)C(=O)C(C)(C)C2=O)c1O | 0.5 (≈ 0.968 µM) | 0.25 (≈ 0.484 µM) | 0.5 (≈ 0.968 µM) | 0.5 (≈ 0.968 µM) | 0.25 (≈ 0.484 µM) | > 32 | 8.2 (≈ 15.9 µM) | 16.4 |  |
| CCCCCCCCCC(=O)c1c(O)cc(O)c([C@@H](CC(C)C)C2=C(O)C(C)(C)C(=O)C(C)(C)C2=O)c1O | 0.25 (≈ 0.471 µM) | 0.25 (≈ 0.471 µM) | 0.5 (≈ 0.942 µM) | 1 (≈ 1.88 µM) | 0.25 (≈ 0.471 µM) | > 32 | 5.1 (≈ 9.61 µM) | 20.4 |  |
| CCCCCC(=O)c1c(O)cc(O)c([C@@H](CC(C)C)C2=C(O)C(C)(C)C(=O)C(C)(C)C2=O)c1O | 2 (≈ 4.21 µM) | 2 (≈ 4.21 µM) |  |  |  |  |  |  |  |
| CC(=O)c1c(O)cc(O)c([C@@H](CC(C)C)C2=C(O)C(C)(C)C(=O)C(C)(C)C2=O)c1O | 4 (≈ 9.56 µM) | 4 (≈ 9.56 µM) |  |  |  |  |  |  |  |
| CCCCCCCCCCCC(=O)c1c(O)cc(O)c([C@@H](CC(C)C)C2=C(O)C(C)(C)C(=O)C(C)(C)C2=O)c1O | 0.5 (≈ 0.895 µM) | 0.5 (≈ 0.895 µM) | 0.5 (≈ 0.895 µM) | 1 (≈ 1.79 µM) | 0.25 (≈ 0.447 µM) | > 32 | 7.9 (≈ 14.1 µM) | 15.8 |  |
| CC[C@H](C)[C@H](NC(=O)CN)C(=O)NCC(=O)N[C@@H](C)C(=O)N[C@H](C(=O)N[C@@H](CC(C)C)C(=O)N[C@@H](CCCCN)C(=O)N[C@H](C(=O)N[C@@H](CC(C)C)C(=O)N[C@H](C(=O)N[C@H](C(=O)NCC(=O)N[C@@H](CC(C)C)C(=O)N1CCC[C@H]1C(=O)N[C@@H](C)C(=O)N[C@@H](CC(C)C)C(=O)N[C@H](C(=O)N[C@@H](CO)C(=O)N[C@@H](Cc1c[nH]c2ccccc12)C(=O)N[C@H](C(=O)N[C@@H](CCCCN)C(=O)N[C@@H](CCCNC(=N)N)C(=O)N[C@@H](CCCCN)C(=O)N[C@@H](CCCNC(=N)N)C(=O)N[C@@H](CCC(N)=O)C(=O)N[C@@H](CCC(N)=O)C(N)=O)[C@@H](C)CC)[C@@H](C)CC)[C@@H](C)O)[C@@H](C)O)C(C)C)C(C)C |  |  |  |  |  |  |  |  | Activity (Staphylococcus aureus [12]): Active |
| CCCC(=O)c1c(O)cc(O)c([C@@H](CC(C)C)C2=C(O)C(C)(C)C(=O)C(C)(C)C2=O)c1O | 32 (≈ 71.7 µM) | 32 (≈ 71.7 µM) |  |  |  |  |  |  |  |
| CC(C)C[C@@H](C1=C(O)C(C)(C)C(=O)C(C)(C)C1=O)c1c(O)cc(O)c(C(=O)C(C)C)c1O | 16 (≈ 35.8 µM) | 16 (≈ 35.8 µM) |  |  |  |  |  |  |  |
| CCCCCCCCCCCCCC(=O)c1c(O)cc(O)c([C@@H](CC(C)C)C2=C(O)C(C)(C)C(=O)C(C)(C)C2=O)c1O | 1 (≈ 1.7 µM) | 0.5 (≈ 0.852 µM) | 2 (≈ 3.41 µM) | 4 (≈ 6.82 µM) | 8 (≈ 13.6 µM) | > 32 | 13.1 (≈ 22.3 µM) | 13.1 | solubility [13]: Insoluble |
| CCCCCCCCCCC(=O)c1c(O)cc(O)c([C@@H](CC(C)C)C2=C(O)C(C)(C)C(=O)C(C)(C)C2=O)c1O | 0.5 (≈ 0.918 µM) | 0.25 (≈ 0.459 µM) | 0.25 (≈ 0.459 µM) | 0.5 (≈ 0.918 µM) | 0.25 (≈ 0.459 µM) | > 32 | 11.1 (≈ 20.4 µM) | 22.2 |  |
| CC(C)CC(=O)c1c(O)cc(O)c([C@@H](CC(C)C)C2=C(O)C(C)(C)C(=O)C(C)(C)C2=O)c1O | 8 (≈ 17.4 µM) | 8 (≈ 17.4 µM) |  |  |  |  |  |  |  |
| CC(C)C[C@@H](C1=C(O)C(C)(C)C(=O)C(C)(C)C1=O)c1c(O)cc(O)c(C=O)c1O | > 32 | > 32 |  |  |  |  |  |  |  |
| CCCCC(=O)c1c(O)cc(O)c([C@@H](CC(C)C)C2=C(O)C(C)(C)C(=O)C(C)(C)C2=O)c1O | 8 (≈ 17.4 µM) | 4 (≈ 8.68 µM) |  |  |  |  |  |  |  |
| CN[C@H](CC(C)C)C(=O)N[C@H]1C(=O)N[C@@H](CC(N)=O)C(=O)N[C@H]2C(=O)N[C@H]3C(=O)N[C@H](C(=O)N[C@H](C(=O)O)c4cc(O)cc(O)c4-c4cc3ccc4O)[C@H](O)c3ccc(c(Cl)c3)Oc3cc2cc(c3O[C@@H]2O[C@H](CO)[C@@H](O)[C@H](O)[C@H]2O[C@H]2C[C@](C)(N)[C@H](O)[C@H](C)O2)Oc2ccc(cc2Cl)[C@H]1O [VANCOMYCIN] |  |  | 1 (≈ 0.69 µM) | 0.25 (≈ 0.173 µM) | 0.13 (≈ 0.0897 µM) | > 32 |  |  | Activity (Staphylococcus aureus [14]): Active |
| CC(C)C[C@@H](C1=C(O)C(C)(C)C(=O)C(C)(C)C1=O)c1c(O)cc(O)c(C(=O)C2CCCCC2)c1O | 4 (≈ 8.22 µM) | 4 (≈ 8.22 µM) |  |  |  |  |  |  |  |
| CCCCCCCCCCCCCCCC(=O)c1c(O)cc(O)c([C@@H](CC(C)C)C2=C(O)C(C)(C)C(=O)C(C)(C)C2=O)c1O | 1 to 2 (≈ 1.63 to 3.25 µM) | 1 (≈ 1.63 µM) | 2 (≈ 3.25 µM) | 8 (≈ 13 µM) | 16 (≈ 26 µM) | > 32 | 17.5 (≈ 28.5 µM) | 17.5 | solubility [13]: Insoluble |
| CCCCCCC(=O)c1c(O)cc(O)c([C@@H](CC(C)C)C2=C(O)C(C)(C)C(=O)C(C)(C)C2=O)c1O | 0.5 (≈ 1.02 µM) | 0.5 (≈ 1.02 µM) | 0.5 (≈ 1.02 µM) | 0.5 (≈ 1.02 µM) | 0.25 (≈ 0.512 µM) | > 32 | 8.8 (≈ 18 µM) | 16.7 |  |
| CC(C)C[C@@H](C1=C(O)C(C)(C)C(=O)C(C)(C)C1=O)c1c(O)cc(O)c(C(=O)Cc2ccccc2)c1O | 16 (≈ 32.4 µM) | 16 (≈ 32.4 µM) |  |  |  |  |  |  |  |
